Test results taken from ChEMBL document CHEMBL5393454, “Compounds inhibitors of mettl3” (2022).

Molecular target: N6-adenosine-methyltransferase catalytic subunit (Homo sapiens, UniProt Q86U44)
Experiment: Inhibition of full length His-tagged METTL3 (unknown origin) co-expressed with full length FLAG-tagged METTL14 in baculovirus expression system preincubated using 5'P-uacacucgaucuggacuaaagcugcuc-3' as substrate and SAM as cosubstrate pre-incubated for 10 mins followed by addition of substrates and measured after 60 mins by RapidFire mass spectrometry (RF/MS) analysis

Sequence of N6-adenosine-methyltransferase catalytic subunit (Q86U44 whole entry): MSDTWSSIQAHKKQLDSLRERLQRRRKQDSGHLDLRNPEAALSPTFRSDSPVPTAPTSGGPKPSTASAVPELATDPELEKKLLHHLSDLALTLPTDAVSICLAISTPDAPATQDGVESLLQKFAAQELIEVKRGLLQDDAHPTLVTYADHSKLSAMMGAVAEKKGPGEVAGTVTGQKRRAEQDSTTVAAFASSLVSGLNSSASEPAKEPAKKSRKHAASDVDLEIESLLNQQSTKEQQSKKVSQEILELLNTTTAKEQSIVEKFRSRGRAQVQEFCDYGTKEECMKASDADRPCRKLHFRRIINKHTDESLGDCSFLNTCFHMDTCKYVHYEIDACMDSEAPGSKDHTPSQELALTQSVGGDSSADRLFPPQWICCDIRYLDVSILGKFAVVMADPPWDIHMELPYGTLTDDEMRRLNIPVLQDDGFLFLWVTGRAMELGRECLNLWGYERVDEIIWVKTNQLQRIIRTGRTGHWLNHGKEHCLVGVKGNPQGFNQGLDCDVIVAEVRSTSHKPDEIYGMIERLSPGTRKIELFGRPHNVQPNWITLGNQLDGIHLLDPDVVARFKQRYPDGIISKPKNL

SMILES	IC50 [nM]
Nc1ncnc2c1c(Br)cn2[C@@H]1O[C@H](/C=C/CCCNCC2CC(F)(F)C2)[C@@H](O)[C@H]1O	22.7
Nc1ncnc2c1c(Br)cn2[C@@H]1O[C@H](/C=C/CCCNCC23CC(F)(C2)C3)[C@@H](O)[C@H]1O	< 6
Nc1ncnc2c1c(Br)cn2[C@@H]1C[C@H](c2ccc3cc(CNCC45CC(F)(C4)C5)[nH]c3c2)[C@@H](O)[C@H]1O	< 6
